Test results reported in patent US20170112741A1, “AGENT FOR AMELIORATING SKIN SYMPTOM, HAIR GROWTH AGENT OR SLIMMING AGENT” (GOLDCREST MEDICINE INSTITUTE CO., LTD., priority 2014, published 2017).

What was measured:
Assay type in all cases: in vivo, human
[1] = tested on: prolactin level in blood; assay: Prolactin level in blood of patient A (prolactin-producing pituitary adenoma) during cabergoline treatment
Procedure: In view of the dramatic improvement of prolactin level, the doctor ordered that the cabergoline administration for the next 1 month be changed to one tablet/week, and oral administration be carried out before sleeping on Thursday. […] As such, the cabergoline administration was maintained at one tablet/week, and the administration period was extended up to 2 months.
Thus, the treatment regimen using cabergoline from August 15 to October 3 was also determined to be oral administration of one tablet (0.25 mg) on Thursday.

[2] = tested on: seborrheic keratosis; assay: Treatment of seborrheic keratosis generated from senile plaque by oral cabergoline; settings: patient A
Description: Investigation was made for the treatment of seborrheic keratosis generated from senile plaque. On the back side of the wrist of the right hand of patient A, there was seborrheic keratosis with width of 15 mm×length of 10 mm, which had remained as a problem for 13 years. In summer, elevation of the skin of about 4 mm with blackish brown color occurred.
Furthermore, 2 years ago, seborrheic keratosis with width of 13 mm×length of 9 mm was caused from senile plaque on the back of the right hand, and elevation of the skin of about 2 mm with dark brown color was recognized. […] Thus, it is recognized that the seborrheic keratosis with a short clinical history is more responsive to the treatment.

[3] = tested on: senile plaques; assay: Change in 5 senile plaques on the back of both hands of patient A under orally administered cabergoline
Description: To find out the pharmaceutical effect of orally administered cabergoline, a change in the symptom of 5 senile plaques occurring on the back of both hands of patient A was investigated for 10 weeks from Jun. 20, 2013 (Thursday) to Aug. 29, 2013 (Thursday).
Patient A was a person with prolactin-producing pituitary adenoma. Before the clinical test of the treatment, patient A had dark brown circle-like senile plaques, specifically, 3 plaques on the back of the left hand (long diameter 11 mm×short diameter 8 mm, long diameter 8 mm×short diameter 6 mm, and long diameter 7 mm×short diameter 5 mm) and 2 plaques on the back of the right hand (long diameter 10 mm×short diameter 8 mm and long diameter 7 mm×short diameter 6 mm).
According to the doctor's instruction, oral administration was performed twice/week, on Monday and Thursday, for the first 4 weeks (from June 20 to July 15), and the dose was 2 mg/4 weeks.
A total of 1 mg of cabergoline were orally administered by this 4-week administration (administration dates are as follows: July 18, July 25, August 1, and August 8).
The cabergoline administration on week 9 and week 10 was performed on August 15 (Thursday) and August 22 (Thursday).

[4] = Slimming effect of cabergoline 0.25 mg/week in patient A
Procedure: Due to an illness, patient A had to undergo the cabergoline treatment from the end of June of year 2013, and for this reason, attempted to lose weight again. Since it was expected that the body weight would be gained back, the target value was set at 56.5 kg, and a long-term plan without any exercise or restricted diet was adopted. However, regular meals were taken and only the overeating was strictly avoided.
Meanwhile, since cabergoline was administered at 0.25 mg/week for 3 months of the measurement period, the total dose of cabergoline was calculated to be 3 mg. […] In this regard, it is considered that no side effect would appear with administration of such a small amount.

[5] = tested on: moles; assay: Effect of oral cabergoline on 10 moles of the femoral region of the right leg; settings: Jan. 20, 2014, after 7 months oral cabergoline; for Color and shape of mole 1, upper part of side area / Color and shape of mole 2, lower part of side area: Jun. 20, 2013: Black rectangle
Procedure: 10 moles were present within an area having a width of 10 cm and a length of 8 cm extending from the outer side to the front side of the femoral region of the right leg. After 7 months, the state of those 10 moles was observed and the effect of oral administration of cabergoline was investigated.
For the first 4 weeks from […], one tablet (0.25 mg) of carbegoline was administered on Monday and Thursday. The total dose over the 4 weeks was 2 mg. For the following 26 weeks, one tablet of cabergoline was administered on every Thursday. The total dose of cabergoline over the 7-month treatment period was calculated to be 8.5 mg.

[6] = patient A, 0.25 mg/week, November 14
[7] = patient A, 0.25 mg/week, November 28
[8] = patient A, 0.25 mg/week, October 3
[9] = patient A, 0.25 mg/week, October 17
[10] = patient A, 0.25 mg/week, October 31
[11] = patient A, 0.25 mg/week, Sep. 5, 2013 (start of measurement period)
[12] = patient A, 0.25 mg/week, September 19
[13] = listed as novel skin treatment agent
[14] = Jun. 20, 2013: Dark brown circle

C=CCN1C[C@H](C(=O)N(CCCN(C)C)C(=O)NCC)C[C@@H]2c3cccc4[nH]cc(c34)C[C@H]21 [cabergoline]
prolactin level in blood ([1]; August 14, after further 4 weeks at one tablet (0.25 mg)/week oral): 47.8 ng/mL | prolactin level in blood ([1]; July 17, after 4 weeks at 2 mg/4 weeks oral, level on April 18 was 20888 ng/mL): 101.8 ng/mL | prolactin level in blood (earlier level as restated) ([1]; level before the decrease seen on August 14): 102 ng/mL | Color of seborrheic keratosis on back side of right wrist ([2]; 13 years history, oral cabergoline over the last year): faded from blackish brown to brown | Color of seborrheic keratosis on the back of the right hand ([2]; as of March 22, initially dark brown): faded to pale yellow brown | Elevation of the skin, seborrheic keratosis on back side of right wrist ([2]; lesion width 15 mm×length 10 mm, 13 years history, elevation about 4 mm, oral cabergoline over the last year): became flattened | color of the senile plaques ([3]; August, 6 weeks after starting cabergoline administration): started to become lighter | state of the senile plaques ([3]; end of August, after 10 weeks oral cabergoline): clearly disappeared | state of the 5 senile plaques ([3]; first 4 weeks (June 20 to July 15), oral twice/week, 2 mg/4 weeks, direct observation): no change was recognized | skin of the back of both hands ([3]; from end of August, previously flecked with pigmented macules and dry): gradually started to become white and have lighter skin texture | size of the senile plaques ([3]; from mid-August, one tablet (0.25 mg)/week oral): started to show a tendency to shrink in size | Hungry feeling ([4]; patient A during weight loss under cabergoline): no hungry feeling | Waist size ([4]; patient A under cabergoline, reduced from 91 cm at a maximum): 83 cm | Body weight course ([4]; patient A under cabergoline, target value 56.5 kg, no exercise or restricted diet): steadily reduced to the target value | Obesity BMI ([4]; patient A, 0.25 mg/week, December 12): 24.0 | Body weight ([4]; patient A, 0.25 mg/week, December 12 (15 weeks)): 56.1 kg | Weight loss ([4]; patient A, 0.25 mg/week, December 12, since previous measurement): 0.7 kg | Total weight loss (%) ([4]; patient A, 0.25 mg/week, December 12, vs Sep. 5, 2013): −10.0% | Body weight [4, 6]: 57.5 kg | Obesity BMI [4, 6]: 24.6 | Weight loss ([4]; patient A, 0.25 mg/week, November 14, since previous measurement): 0.8 kg | Total weight loss (%) ([4]; patient A, 0.25 mg/week, November 14, vs Sep. 5, 2013): −7.7% | Body weight [4, 7]: 56.8 kg | Obesity BMI [4, 7]: 24.3 | Weight loss ([4]; patient A, 0.25 mg/week, November 28, since previous measurement): 0.7 kg | Total weight loss (%) ([4]; patient A, 0.25 mg/week, November 28, vs Sep. 5, 2013): −8.9% | Body weight [4, 8]: 60.1 kg | Obesity BMI [4, 8]: 25.7 | Weight loss ([4]; patient A, 0.25 mg/week, October 3, since previous measurement): 1.2 kg | Total weight loss (%) ([4]; patient A, 0.25 mg/week, October 3, vs Sep. 5, 2013): −3.5% | Body weight [4, 9]: 59.1 kg | Obesity BMI [4, 9]: 25.2 | Weight loss ([4]; patient A, 0.25 mg/week, October 17, since previous measurement): 1.0 kg | Total weight loss (%) ([4]; patient A, 0.25 mg/week, October 17, vs Sep. 5, 2013): −5.1% | Body weight [4, 10]: 58.3 kg | Obesity BMI [4, 10]: 24.9 | Weight loss ([4]; patient A, 0.25 mg/week, October 31, since previous measurement): 0.8 kg | Total weight loss (%) ([4]; patient A, 0.25 mg/week, October 31, vs Sep. 5, 2013): −6.4% | Body weight [4, 11]: 62.3 kg | Obesity BMI [4, 11]: 26.6 | Body weight [4, 12]: 61.3 kg | Obesity BMI [4, 12]: 26.2 | Weight loss ([4]; patient A, 0.25 mg/week, September 19, since previous measurement): 1.0 kg | Total weight loss (%) ([4]; patient A, 0.25 mg/week, September 19, vs Sep. 5, 2013): −1.6% | Time after which BMI was decreased to a normal level ([4]; patient A, oral administration, normal BMI 21.5 to 24.9): 8 weeks | Body weight ([4]; patient A, Mar. 14, 2015): 54.2 kg | Obesity BMI ([4]; patient A, Mar. 14, 2015): 23.2 | Weight loss ([4]; patient A, Mar. 14, 2015, since previous measurement): 1.9 kg | Total weight loss (%) ([4]; patient A, Mar. 14, 2015, vs Sep. 5, 2013): −13.0% | Appearance of all 4 moles on the front area [5]: turned into faint flesh colored, pigmented macules | Diameter of the 2 light brown circular moles sandwiching the red moles of the middle area [5]: 1 mm | Diameter of the remaining 2 small front-area moles [5]: 1 mm | Size change of the front-area moles of 4.5 mm and 3 mm [5]: hardly shrunk | Appearance of mole 7, upper part of front area ([5]; Jun. 20, 2013: 3.3 × 3.1 Brown circle-like, cell continues: flesh color): Turned into weak pigmented macules having | Size change of mole 7, upper part of front area ([5]; Jun. 20, 2013: 3.3 × 3.1 mm): flesh color with almost no change in size | Color and shape of mole 1, upper part of side area [5]: dark brown rectangular mole | Color and shape of mole 2, lower part of side area [5]: faded light brown oval mole with an unclear border | Color and shape of mole 1, upper part of side area [5, 13]: Dark brown rectangle | Color and shape of mole 2, lower part of side area [5, 13]: Faint, light brown rectangle | Color and shape of mole 4, central left part of middle area ([5]; Jun. 20, 2013: Brown rectangle): Light red circle-like | Color and shape of mole 3, upper part of middle area [5, 14]: Faint, light brown circle | Color and shape of mole 6, lower part of middle area [5, 14]: Dark brown circle | Color and shape of mole 5, central right part of middle area ([5]; Jun. 20, 2013: Dark brown oval): Red circle-like
